Test results: US5367078A, “3-oxadiazolyl-1,6-naphthyridine derivatives” (Dainippon Pharmaceutical Co., Ltd., priority 1992, dated 1994)

Columns and labels:
[1] = tested on: pentylenetetrazole-induced clonic convulsion; assay: Activity on pentylenetetrazole-induced clonic convulsion (anti-PTZ activity); format: in vivo, mouse (Std-ddY male); details: Mus musculus, 2 hours before pentylenetetrazole 85 mg/kg s.c., observed 30 minutes, read-out: Number of mice having antagonistic activity/number of test mice (converted); for responders at 50 mg/kg: 50 mg/kg oral; for responders at 20 mg/kg: 20 mg/kg oral; for responders at 10 mg/kg: 10 mg/kg oral; for responders at 2 mg/kg: 2 mg/kg oral
Procedure: Experiment 2 Activity on pentylenetetrazole-induced clonic convulsion (anti-PTZ activity)
The activity on pentylenetetrazole-induced clonic convulsion of the test compound was tested according to the method of E. A. Swinyard (cf. Anticonvulsant Drugs. Mercier, J., Ed., pp. 47-65, Pergamon Press, New York (1973)). In this test, petit real-type antiepileptics and most of benzodiazepine drugs show positive results.
A test compound was administered orally to Std-ddY male mice (weight; 20-25 g, five mice/group). […] When no clonic convulsion was observed, it was determined that the test compound had antagonistic activity.

benzodiazepine receptor = assay: Benzodiazepine receptor binding assay ([^3 H]-diazepam); details: [^3 H]-diazepam 1.5 nM, rat brain crude synaptosome membrane, pH 7.4, 0° C., 20 minutes

SMILES | IC50 (benzodiazepine receptor) | other results
COc1nnc(-c2cc3c([nH]c2=O)CCN(Cc2ccccc2)C3)o1 [Example 6, 6-benzyl-3-(5-methoxy-1,3,4-oxadiazol-2-yl)-5,6,7,8-tetrahydro-1,6-naphthyridine-2(1H)-one] | 9.91 nM | responders at 50 mg/kg [1]: 100%
COc1nnc(-c2cc3c([nH]c2=O)CCN(Cc2ccc(Cl)cc2)C3)o1 [Example 7] | 13.5 nM | responders at 50 mg/kg [1]: 100%
COc1nnc(-c2cc3c([nH]c2=O)CCN(Cc2ccccc2Cl)C3)o1 [Example 10] | 6.95 nM | responders at 20 mg/kg [1]: 100%
COc1nnc(-c2cc3c([nH]c2=O)CCN(Cc2cccc(F)c2)C3)o1 [Example 13] |  | responders at 20 mg/kg [1]: 100%
COc1cccc(CN2CCc3[nH]c(=O)c(-c4nnc(OC)o4)cc3C2)c1 [Example 17] |  | responders at 20 mg/kg [1]: 60%
COc1nnc(-c2cc3c([nH]c2=O)CCN(Cc2cccc([N+](=O)[O-])c2)C3)o1 [Example 23] |  | responders at 10 mg/kg [1]: 80%
COc1nnc(-c2cc3c([nH]c2=O)CCN(Cc2ccccc2Br)C3)o1 [Example 26] | 14.1 nM | responders at 2 mg/kg [1]: 60%
COc1nnc(-c2cc3c([nH]c2=O)CCN(Cc2cccc(F)c2F)C3)o1 [Example 29] | 5.46 nM | 
COc1nnc(-c2cc3c([nH]c2=O)CCN(Cc2cccc(Cl)c2F)C3)o1 [Example 32] | 2.49 nM | 
COc1nnc(-c2cc3c([nH]c2=O)CCN(Cc2ccccc2C(F)(F)F)C3)o1 [Example 33] |  | responders at 10 mg/kg [1]: 80%
COc1nnc(-c2cc3c([nH]c2=O)CCN(Cc2c(F)cccc2F)C3)o1 [Example 35] |  | responders at 2 mg/kg [1]: 100%
COc1nnc(-c2cc3c([nH]c2=O)CCN(Cc2c(F)ccc(F)c2F)C3)o1 [Example 36] |  | responders at 2 mg/kg [1]: 100%
COc1nnc(-c2cc3c([nH]c2=O)CCN(Cc2cc(F)ccc2Br)C3)o1 [Example 38] | 4.55 nM | responders at 2 mg/kg [1]: 80%
COc1nnc(-c2cc3c([nH]c2=O)CCN(Cc2cc(F)ccc2Cl)C3)o1 [Example 52] | 19.3 nM | responders at 10 mg/kg [1]: 100%
O=c1[nH]c2c(cc1-c1nnc(C3CC3)o1)CN(Cc1ccccc1)CC2 [Example 55, 6-benzyl-3-(5-cyclopropyl-1,3,4-oxadiazol-2-yl)-5,6,7,8-tetrahydro-1,6-naphthyridin-2(1H)-one] | 3.91 nM | responders at 50 mg/kg [1]: 100%
CC(C)c1nnc(-c2cc3c([nH]c2=O)CCN(Cc2ccccc2)C3)o1 [Example 56] | 35.1 nM | responders at 50 mg/kg [1]: 80%
O=c1[nH]c2c(cc1-c1nnc(-c3ccccc3)o1)CN(Cc1ccccc1)CC2 [Example 58] | 14.6 nM | 
O=c1[nH]c2c(cc1-c1nnc(-c3cccs3)o1)CN(Cc1ccccc1)CC2 [Example 60] | 1.58 nM | responders at 50 mg/kg [1]: 100%
O=c1[nH]c2c(cc1-c1nnc(-c3ccccc3Cl)o1)CN(Cc1ccccc1)CC2 [Example 61] | 6.25 nM | 
CCCc1nnc(-c2cc3c([nH]c2=O)CCN(Cc2ccccc2)C3)o1 [Example 62] | 13.8 nM | 
O=c1[nH]c2c(cc1-c1nnc(-c3ccco3)o1)CN(Cc1ccccc1)CC2 [Example 64] | 4.09 nM | 
Cc1cc(-c2nnc(-c3cc4c([nH]c3=O)CCN(Cc3ccccc3)C4)o2)no1 [Example 66] | 10.1 nM | responders at 50 mg/kg [1]: 100%
Cc1ccc(CN2CCc3[nH]c(=O)c(-c4nnc(C5CC5)o4)cc3C2)cc1 [Example 80] |  | responders at 50 mg/kg [1]: 80%
Cc1cccc(CN2CCc3[nH]c(=O)c(-c4nnc(C5CC5)o4)cc3C2)c1 [Example 81] | 5.17 nM | 
O=c1[nH]c2c(cc1-c1nnc(C3CC3)o1)CN(Cc1ccc(Cl)cc1)CC2 [Example 82] | 8.98 nM | 
O=c1[nH]c2c(cc1-c1nnc(C3CC3)o1)CN(Cc1cccc(Cl)c1)CC2 [Example 83] |  | responders at 50 mg/kg [1]: 100%
COc1ccc(CN2CCc3[nH]c(=O)c(-c4nnc(C5CC5)o4)cc3C2)cc1 [Example 85] |  | responders at 50 mg/kg [1]: 80%
COc1cccc(CN2CCc3[nH]c(=O)c(-c4nnc(C5CC5)o4)cc3C2)c1 [Example 86] | 7.91 nM | 

SMILES | IC50 (benzodiazepine receptor) | other results
O=c1[nH]c2c(cc1-c1nnc(C3CC3)o1)CN(Cc1cccc(F)c1)CC2 [Example 88] | 4.62 nM | 
O=c1[nH]c2c(cc1-c1nnc(C3CC3)o1)CN(Cc1ccccc1F)CC2 [Example 89] |  | responders at 50 mg/kg [1]: 100%
CCc1nnc(-c2cc3c([nH]c2=O)CCN(Cc2ccccc2)C3)o1 [Example 91] | 23.1 nM | responders at 50 mg/kg [1]: 100%
C=C(C)c1nnc(-c2cc3c([nH]c2=O)CCN(Cc2ccccc2)C3)o1 [Example 111, 6-benzyl-3-(5-isopropenyl-1,3,4-oxadazol-2-yl)-5,6,7,8-tetrahydro-1,6-naphthyridin-2(1H)-one] |  | responders at 50 mg/kg [1]: 100%
O=c1[nH]c2c(cc1-c1nnc(C(F)(F)F)o1)CN(Cc1ccccc1)CC2 [Example 115] | 50.3 nM | 
O=c1[nH]c2c(cc1-c1noc(C3CC3)n1)CN(Cc1ccccc1)CC2 [Example 119, 6-benzyl-3-(5-cyclopropyl-1,2,4-oxadiazol-3-yl)-5,6,7,8-tetrahydro-1,6-naphthyridin-2(1H)-one] | 1.29 nM | responders at 10 mg/kg [1]: 100%
CCc1nc(-c2cc3c([nH]c2=O)CCN(Cc2ccccc2)C3)no1 [Example 120] | 4.4 nM | responders at 10 mg/kg [1]: 90%
O=c1[nH]c2c(cc1-c1noc(-c3ccccc3)n1)CN(Cc1ccccc1)CC2 [Example 121] | 62.4 nM | 
Cc1nc(-c2cc3c([nH]c2=O)CCN(Cc2ccccc2)C3)no1 [Example 122] | 5.96 nM | responders at 10 mg/kg [1]: 100%
O=c1[nH]c2c(cc1-c1noc(-c3cccs3)n1)CN(Cc1ccccc1)CC2 [Example 123] | 12.5 nM | 
CC(C)c1nc(-c2cc3c([nH]c2=O)CCN(Cc2ccccc2)C3)no1 [Example 124] | 5.4 nM | responders at 10 mg/kg [1]: 60%
CCCc1nc(-c2cc3c([nH]c2=O)CCN(Cc2ccccc2)C3)no1 [Example 125] | 8.63 nM | 
O=c1[nH]c2c(cc1-c1nc(-c3ccccc3)no1)CN(Cc1ccccc1)CC2 [Example 141, 6-benzyl-3-(3-phenyl-1,2,4-oxadiazol-5-yl)-5,6,7,8-tetrahydro-1,6-naphthyridin-2(1H)-one] | 22.8 nM | 
CCc1noc(-c2cc3c([nH]c2=O)CCN(Cc2ccccc2)C3)n1 [Example 142] | 3.24 nM | responders at 10 mg/kg [1]: 80%
O=c1[nH]c2c(cc1-c1nc(C3CC3)no1)CN(Cc1ccccc1)CC2 [Example 143] | 2.19 nM | responders at 10 mg/kg [1]: 60%
O=c1[nH]c2c(cc1-c1nc(-c3cccs3)no1)CN(Cc1ccccc1)CC2 [Example 145] | 8.64 nM | 
CC(C)c1noc(-c2cc3c([nH]c2=O)CCN(Cc2ccccc2)C3)n1 [Example 146] | 9.11 nM | 
CCCc1noc(-c2cc3c([nH]c2=O)CCN(Cc2ccccc2)C3)n1 [Example 147] | 2.5 nM | 
O=c1[nH]c2c(cc1-c1nc(C3CC3)no1)CN(Cc1ccccc1Cl)CC2 [Example 152] | 4.9 nM | 
O=c1[nH]c2c(cc1-c1nc(C3CC3)no1)CN(Cc1cccc(Cl)c1)CC2 [Example 153] | 3.51 nM | 
O=c1[nH]c2c(cc1-c1nc(C3CC3)no1)CN(Cc1ccc(Cl)cc1)CC2 [Example 154] | 11 nM | 
O=c1[nH]c2c(cc1-c1nc(C3CC3)no1)CN(Cc1ccccc1Br)CC2 [Example 155] | 6.08 nM | 
O=c1[nH]c2c(cc1-c1nc(C3CC3)no1)CN(Cc1cccc(Br)c1)CC2 [Example 156] | 6.68 nM | 
O=c1[nH]c2c(cc1-c1nc(C3CC3)no1)CN(Cc1ccccc1F)CC2 [Example 157] | 2.71 nM | 
O=c1[nH]c2c(cc1-c1nc(C3CC3)no1)CN(Cc1cccc(F)c1)CC2 [Example 158] | 3.73 nM | 
Cc1ccccc1CN1CCc2[nH]c(=O)c(-c3nc(C4CC4)no3)cc2C1 [Example 159] | 8.15 nM | 
Cc1cccc(CN2CCc3[nH]c(=O)c(-c4nc(C5CC5)no4)cc3C2)c1 [Example 160] | 3.75 nM | 
